Measurements taken from PubChem BioAssay AID2060599 (Molecular Pharmacology Branch, DTP, NCI, 2025).
Several values for one entry are separate records, joined by “and”; a condition that tells them apart may be missing. Identical values can stand only once.

System: 817829-284-R-J1-PDC complex spheroids, viability
Assay: Anticancer human tumor 817829-284-R-J1-PDC patient-derived colon adenocarcinoma cell line growth inhibition [CLK]
Conditions: for viability, T/C: stronger effect = lower value
Summary of the method: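 Multi-cell-type spheroids combined patient-derived tumor cells with HUVEC endothelial cells and human mesenchymal stem cells. Paired agents were dosed in half-log steps down from about clinical Cmax, or from 10 microM where Cmax was unknown.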

[1] = curve of first compound, second compound 0.0316 µM
[2] = curve of first compound, second compound 0.1 µM
[3] = curve of first compound, second compound 0.316 µM
[4] = curve of first compound, second compound 1 µM
[5] = curve of first compound, second compound 3.16 µM
[6] = curve of first compound, second compound 10 µM
[7] = second compound 0.0316 µM, first compound 0.0316 µM
[8] = second compound 0.0316 µM, first compound 0.1 µM
[9] = second compound 0.0316 µM, first compound 0.316 µM
[10] = second compound 0.0316 µM, first compound 1 µM
[11] = second compound 0.0316 µM, first compound 3.16 µM
[12] = second compound 0.0316 µM, first compound 10 µM
[13] = second compound 0.1 µM, first compound 0.0316 µM
[14] = second compound 0.1 µM, first compound 0.1 µM
[15] = second compound 0.1 µM, first compound 0.316 µM
[16] = second compound 0.1 µM, first compound 1 µM
[17] = second compound 0.1 µM, first compound 3.16 µM
[18] = second compound 0.1 µM, first compound 10 µM
[19] = second compound 0.316 µM, first compound 0.0316 µM
[20] = second compound 0.316 µM, first compound 0.1 µM
[21] = second compound 0.316 µM, first compound 0.316 µM
[22] = second compound 0.316 µM, first compound 1 µM
[23] = second compound 0.316 µM, first compound 3.16 µM
[24] = second compound 0.316 µM, first compound 10 µM
[25] = second compound 1 µM, first compound 0.0316 µM
[26] = second compound 1 µM, first compound 0.1 µM
[27] = second compound 1 µM, first compound 0.316 µM
[28] = second compound 1 µM, first compound 1 µM
[29] = second compound 1 µM, first compound 3.16 µM
[30] = second compound 1 µM, first compound 10 µM
[31] = second compound 3.16 µM, first compound 0.0316 µM
[32] = second compound 3.16 µM, first compound 0.1 µM
[33] = second compound 3.16 µM, first compound 0.316 µM
[34] = second compound 3.16 µM, first compound 1 µM
[35] = second compound 3.16 µM, first compound 3.16 µM
[36] = second compound 3.16 µM, first compound 10 µM
[37] = second compound 10 µM, first compound 0.0316 µM
[38] = second compound 10 µM, first compound 0.1 µM
[39] = second compound 10 µM, first compound 0.316 µM
[40] = second compound 10 µM, first compound 1 µM
[41] = second compound 10 µM, first compound 3.16 µM
[42] = second compound 10 µM, first compound 10 µM
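Note: spheroids exposed to the agents for seven days before readout.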

In the case of C=C(F)C(=O)N1CCN(c2nc(OCC3CCCN3C)nc3c2CCN(c2cccc4cccc(Cl)c24)C3)CC1CC#N (stereo not drawn), the viability, T/C (compound 0.0316 µM) is reported as 99.4% and 105%, the viability, T/C (compound 0.1 µM) is reported as 73% and 144% and the viability, T/C (compound 0.316 µM) is reported as 141% and 96.3%. The viability, T/C (compound 1 µM) was 77.1% and 84.6%, the viability, T/C (compound 3.16 µM) was 20.8% and 21.4% and the viability, T/C (compound 10 µM) was 0.08% and 0.14%. For the same molecule, the IC50 (curve of compound) was 1770 nM and 1850 nM.
With O=c1[nH]cc(F)c(=O)[nH]1 + CNC(=O)c1ccc(Nc2nc(OC3CCCC3)c3c(-c4ccc5nc(C)oc5c4)c[nH]c3n2)c(OC)c1 the IC50 [1] was under 31.6 nM, the IC50 [2] was under 31.6 nM and the IC50 [3] was under 31.6 nM. It also gave an IC50 [4] of under 31.6 nM, an IC50 [5] of under 31.6 nM and an IC50 [6] of under 31.6 nM. For the same molecule, the viability, T/C [7] was 37.3%, the viability, T/C [8] was 39.1% and the viability, T/C [9] was 24.6%. It also gave a viability, T/C [10] of 38.4%, a viability, T/C [11] of 29.1% and a viability, T/C [12] of 22.6%. The viability, T/C [13] was 19.2%, the viability, T/C [14] was 24% and the viability, T/C [15] was 22.7%. The viability, T/C [16] was 22.6%, the viability, T/C [17] was 18.5% and the viability, T/C [18] was 17.6%. For the same molecule, the viability, T/C [19] was 17.6%, the viability, T/C [20] was 26.6% and the viability, T/C [21] was 17.4%. For the same molecule, the viability, T/C [22] was 23.1%, the viability, T/C [23] was 15% and the viability, T/C [24] was 12.6%. For the same molecule, the viability, T/C [25] was 17.2%, the viability, T/C [26] was 16.8% and the viability, T/C [27] was 16.9%. It also gave a viability, T/C [28] of 11.3%, a viability, T/C [29] of 13.3% and a viability, T/C [30] of 7%. It also gave a viability, T/C [31] of 18.9%, a viability, T/C [32] of 20.1% and a viability, T/C [33] of 13.6%. It also gave a viability, T/C [34] of 14.7%, a viability, T/C [35] of 10.8% and a viability, T/C [36] of 7.07%. The viability, T/C [37] was 20.7%, the viability, T/C [38] was 22.1% and the viability, T/C [39] was 17.8%. For the same molecule, the viability, T/C [40] was 11.7%, the viability, T/C [41] was 7.79% and the viability, T/C [42] was 7.22%.
In the case of CCCS(=O)(=O)Nc1ccc(F)c(C(=O)c2c[nH]c3ncc(-c4ccc(Cl)cc4)cc23)c1F, the viability, T/C (compound 0.0316 µM) is reported as 86.7% and 79.4%, the viability, T/C (compound 0.1 µM) is reported as 48.8% and 64.2% and the viability, T/C (compound 0.316 µM) is reported as 66% and 89%. The viability, T/C (compound 1 µM) was 54.1% and 77%, the viability, T/C (compound 3.16 µM) was 52.5% and 59.8% and the viability, T/C (compound 10 µM) was 25.3% and 16.9%. The IC50 (curve of compound) was 1210 nM and 4110 nM.
O=C(c1cc(Cc2n[nH]c(=O)c3ccccc23)ccc1F)N1CCN(C(=O)C2CC2)CC1 + CN1CCN(c2cc(C(=O)Nc3cc4cc(-c5cnn(C)c5)ccc4cn3)ccn2)CC1 was tested, and the IC50 [1] was under 31.6 nM, the IC50 [2] was under 31.6 nM and the IC50 [3] was under 31.6 nM. It also gave an IC50 [4] of under 31.6 nM, an IC50 [5] of under 31.6 nM and an IC50 [6] of under 31.6 nM. For the same molecule, the viability, T/C [7] was 49.4%, the viability, T/C [8] was 44.3% and the viability, T/C [9] was 46.2%. The viability, T/C [10] was 45.6%, the viability, T/C [11] was 36.7% and the viability, T/C [12] was 26.6%. It also gave a viability, T/C [13] of 15.5%, a viability, T/C [14] of 19.8% and a viability, T/C [15] of 18.6%. The viability, T/C [16] was 20.7%, the viability, T/C [17] was 17.8% and the viability, T/C [18] was 18.6%. For the same molecule, the viability, T/C [19] was 1.83%, the viability, T/C [20] was 1.77% and the viability, T/C [21] was 2.03%. It also gave a viability, T/C [22] of 1.63%, a viability, T/C [23] of 1.4% and a viability, T/C [24] of 1.54%. It also gave a viability, T/C [25] of 0.12%, a viability, T/C [26] of 0.1% and a viability, T/C [27] of 0.12%. The viability, T/C [28] was 0.09%, the viability, T/C [29] was 0.12% and the viability, T/C [30] was 0.09%. For the same molecule, the viability, T/C [31] was 0.2%, the viability, T/C [32] was 0.18% and the viability, T/C [33] was 0.17%. The viability, T/C [34] was 0.16%, the viability, T/C [35] was 0.23% and the viability, T/C [36] was 0.22%. It also gave a viability, T/C [37] of 0.06%, a viability, T/C [38] of 0.08% and a viability, T/C [39] of 0.15%. For the same molecule, the viability, T/C [40] was 0.09%, the viability, T/C [41] was 0.18% and the viability, T/C [42] was 0.15%.
